Laboratory results reported in ChEMBL document CHEMBL1152625, “Pochonicine, a polyhydroxylated pyrrolizidine alkaloid from fungus Pochonia suchlasporia var. suchlasporia TAMA 87 as a potent beta-N-acetylglucosaminidase inhibitor” (Bioorg Med Chem, 2009).
pIC50, pKi: −log10 of the molar value. Calls of active or inactive are those of the source. The calls are words filed in the database; no cut-off is given here.

Experiments:
[1] = Inhibition of jack bean beta-N-acetylglucosaminidase by pNP-GlcNAc substrate hydrolysis assay; design: species or system Canavalia ensiformis
[2] = Inhibition of bovine kidney beta-N-acetylglucosaminidase by pNP-GlcNAc substrate hydrolysis assay; design: species or system Bos taurus
[3] = Noncompetitive inhibition of bovine kidney beta-N-acetylglucosaminidase by pNP-GlcNAc substrate hydrolysis assay; design: species or system Bos taurus
Saccharomyces cerevisiae = experiment: Inhibition of yeast alpha-glucosidase at 2.38 uM by […] substrate hydrolysis assay
Bacillus sp. = experiment: Inhibition of Bacillus sp. chitinase at 209 uM by pNP-GlcNAc2 substrate hydrolysis assay
Prunus dulcis = experiment: Inhibition of almond beta-glucosidase at 2.38 uM by pNP-beta-Glc substrate hydrolysis assay
[4] = Competitive inhibition of Spodoptera litura beta-N-acetylglucosaminidase by pNP-GlcNAc substrate hydrolysis assay
[5] = Competitive inhibition of jack bean beta-N-acetylglucosaminidase by pNP-GlcNAc substrate hydrolysis assay; design: species or system Canavalia ensiformis
[6] = Noncompetitive inhibition of Aspergillus oryzae beta-N-acetylglucosaminidase by pNP-GlcNAc substrate hydrolysis assay
[7] = Inhibition of Aspergillus oryzae beta-N-acetylglucosaminidase by pNP-GlcNAc substrate hydrolysis assay
[8] = Inhibition of Spodoptera litura beta-N-acetylglucosaminidase by pNP-GlcNAc substrate hydrolysis assay
[9] = Inhibition of Penicillium oxalicum beta-N-acetylglucosaminidase by pNP-GlcNAc substrate hydrolysis assay
[10] = Mixed type inhibition of Penicillium oxalicum beta-N-acetylglucosaminidase by pNP-GlcNAc substrate hydrolysis assay
[11] = Competitive inhibition of bovine kidney beta-N-acetylglucosaminidase by pNP-GlcNAc substrate hydrolysis assay; design: species or system Bos taurus
[12] = Competitive inhibition of Aspergillus oryzae beta-N-acetylglucosaminidase by pNP-GlcNAc substrate hydrolysis assay
[13] = Competitive inhibition of Penicillium oxalicum beta-N-acetylglucosaminidase by pNP-GlcNAc substrate hydrolysis assay

pKi [1]	pKi [2]	pKi [11]	pKi [12]	pKi [13]	SMILES	pKi [3]	Activity (Saccharomyces cerevisiae)	pIC50 [1]	Activity (Bacillus sp.)	Activity (Prunus dulcis)	pKi [4]	pKi [5]	pKi [6]	pIC50 [7]	pIC50 [2]	pIC50 [8]	pIC50 [9]	pKi [10]
5.44	4.16				CC(=O)NC[C@@H]1N[C@H](CO)[C@@H](O)[C@@H]1O													
5.72	5.01				CC(=O)NC[C@H]1N[C@H](CO)[C@@H](O)[C@@H]1O													
					CC(=O)NC[C@H]1[C@H](O)[C@H](O)[C@@H]2[C@H](O)C[C@@H](CO)N21 (relative stereo) [POCHONICINE]	8.98	inactive	9.54	inactive	inactive	8.75	9.79	6.85	7.69	8.97	8.22	7.38	7.88
		8.79	8.01	8.09	CC(=O)N[C@H]1c2nc(CC(=O)O)cn2[C@H](CO)[C@H](O)[C@@H]1O [NAGSTATIN]						8.96	8.85		7.97	8.77	8.23	7.22	
